Assay results: ChEMBL document CHEMBL1126597, “Irreversible inactivation of macrophage and brain nitric oxide synthase by L-NG-methylarginine requires NADPH-dependent hydroxylation” (J Med Chem, 1993)

Target: T1, Nitric oxide synthase, inducible (Mus musculus) (UniProt P29477)
T1 sequence (whole entry): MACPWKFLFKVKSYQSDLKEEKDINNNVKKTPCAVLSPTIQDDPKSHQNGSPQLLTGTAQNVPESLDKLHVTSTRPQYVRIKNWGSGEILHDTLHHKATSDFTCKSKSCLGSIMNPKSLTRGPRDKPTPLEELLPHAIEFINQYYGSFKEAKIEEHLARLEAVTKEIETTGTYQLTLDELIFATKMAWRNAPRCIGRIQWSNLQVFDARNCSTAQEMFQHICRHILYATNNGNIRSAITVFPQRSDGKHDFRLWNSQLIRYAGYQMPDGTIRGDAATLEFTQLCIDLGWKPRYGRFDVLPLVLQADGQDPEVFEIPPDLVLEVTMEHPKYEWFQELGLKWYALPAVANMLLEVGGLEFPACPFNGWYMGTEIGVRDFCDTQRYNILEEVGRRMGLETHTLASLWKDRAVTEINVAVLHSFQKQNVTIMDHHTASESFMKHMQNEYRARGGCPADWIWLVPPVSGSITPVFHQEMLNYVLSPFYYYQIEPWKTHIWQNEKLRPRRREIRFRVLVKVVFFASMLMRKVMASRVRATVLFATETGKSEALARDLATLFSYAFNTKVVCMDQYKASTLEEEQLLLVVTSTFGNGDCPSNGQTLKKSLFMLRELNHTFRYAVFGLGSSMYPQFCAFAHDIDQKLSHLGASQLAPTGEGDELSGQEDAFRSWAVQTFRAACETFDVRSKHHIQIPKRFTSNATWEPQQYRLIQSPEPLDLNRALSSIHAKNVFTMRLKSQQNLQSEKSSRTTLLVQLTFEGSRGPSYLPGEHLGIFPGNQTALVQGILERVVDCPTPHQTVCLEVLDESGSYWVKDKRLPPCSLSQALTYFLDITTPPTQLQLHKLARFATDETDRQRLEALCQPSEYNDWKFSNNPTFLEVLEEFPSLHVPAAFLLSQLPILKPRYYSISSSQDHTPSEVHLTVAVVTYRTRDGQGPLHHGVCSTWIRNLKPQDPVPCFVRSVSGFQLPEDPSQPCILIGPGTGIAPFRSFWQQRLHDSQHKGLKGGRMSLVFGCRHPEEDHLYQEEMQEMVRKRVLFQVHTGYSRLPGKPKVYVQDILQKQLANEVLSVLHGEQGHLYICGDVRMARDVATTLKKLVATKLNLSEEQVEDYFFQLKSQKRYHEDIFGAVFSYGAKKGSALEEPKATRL
Test: Inhibitory against murine macrophage nitric oxide synthase (mNOS) at 10 uM

kinact [min⁻¹] | SMILES
0.08 | CNC(=N)NCCC[C@H](N)C(=O)O
0.1 | CN(O)C(=N)NCCCC(N)C(=O)O (configuration not stated)
